In the oligonucleotide strings, read from the 5' end, every base follows the letter of its sugar. An asterisk marks phosphorothioate; unmarked linkages are phosphodiester. Other units and linkages are bracketed, terminal groups are in braces. A string of capitals states the bases alone. e = 2'-O-(2-methoxyethyl) (MOE); [5mC] = 5-methylcytosine; d = 2'-deoxy (DNA)
Test system: mouse growth hormone receptor mRNA
Experiment: Inhibition of mouse growth hormone receptor mRNA levels in b.END cells, quantitative real-time PCR, incl. dose-response
Format: cell-based
Conditions: averages from three experiments
Experimental: The mouse brain endothelial cell line b.END was obtained from Dr. Werner Risau at the Max Plank Instititute (Bad Nauheim, Germany). b.END cells were routinely cultured in DMEM, high glucose (Gibco/Life Technologies, Gaithersburg, Md.) supplemented with 10% fetal calf serum (Gibco/Life Technologies, Gaithersburg, Md.). Cells were routinely passaged by trypsinization and dilution when they reached 90% confluence. Cells were seeded into 96-well plates (Falcon-Primaria #3872) at a density of 3000 cells/well for use in RT-PCR analysis.
When cells reached 65-75% confluency, they were treated with oligonucleotide. For cells grown in 96-well plates, wells were washed once with 100 μL OPTI-MEM™-1 reduced-serum medium (Invitrogen Corporation, Carlsbad, Calif.) and then treated with 130 μL of OPTI-MEM™-1 containing 3.75 μg/mL LIPOFECTIN™ (Invitrogen Corporation, Carlsbad, Calif.) and the desired concentration of oligonucleotide. Cells are treated and data are obtained in triplicate. After 4-7 hours of treatment at 37° C., the medium was replaced with fresh medium. Cells were harvested 16-24 hours after oligonucleotide treatment.
Total RNA was isolated using an RNEASY 96™ kit and buffers purchased from Qiagen Inc. (Valencia, Calif.) following the manufacturer's recommended procedures. Briefly, for cells grown on 96-well plates, growth medium was removed from the cells and each well was washed with 200 μL cold PBS. 150 μL Buffer RLT was added to each well and the plate vigorously agitated for 20 seconds. 150 μL of 70% ethanol was then added to each well and the contents mixed by pipetting three times up and down. The samples were then transferred to the RNEASY 96™ well plate attached to a QIAVAC™ manifold fitted with a waste collection tray and attached to a vacuum source. Vacuum was applied for 1 minute. 500 μL of Buffer RW1 was added to each well of the RNEASY 96™ plate and incubated for 15 minutes and the vacuum was again applied for 1 minute. An additional 500 μL of Buffer RW1 was added to each well of the RNEASY 96™ plate and the vacuum was applied for 2 minutes. 1 mL of Buffer RPE was then added to each well of the RNEASY 96™ plate and the vacuum applied for a period of 90 seconds. The Buffer RPE wash was then repeated and the vacuum was applied for an additional 3 minutes. The plate was then removed from the QIAVAC™ manifold and blotted dry on paper towels. The plate was then re-attached to the QIAVAC™ manifold fitted with a collection tube rack containing 1.2 mL collection tubes. RNA was then eluted by pipetting 140 μL of RNAse free water into each well, incubating 1 minute, and then applying the vacuum for 3 minutes.
Quantitation of growth hormone receptor mRNA levels was accomplished by real-time quantitative PCR using the ABI PRISM™ 7600, 7700, or 7900 Sequence Detection System (PE-Applied Biosystems, Foster City, Calif.) according to manufacturer's instructions. This is a closed-tube, non-gel-based, fluorescence detection system which allows high-throughput quantitation of polymerase chain reaction (PCR) products in real-time. As opposed to standard PCR in which amplification products are quantitated after the PCR is completed, products in real-time quantitative PCR are quantitated as they accumulate. This is accomplished by including in the PCR reaction an oligonucleotide probe that anneals specifically between the forward and reverse PCR primers, and contains two fluorescent dyes. A reporter dye (e.g., FAM or JOE, obtained from either PE-Applied Biosystems, Foster City, Calif., Operon Technologies Inc., Alameda, Calif. or Integrated DNA Technologies Inc., Coralville, Iowa) is attached to the 5′ end of the probe and a quencher dye (e.g., TAMRA, obtained from either PE-Applied Biosystems, Foster City, Calif., Operon Technologies Inc., Alameda, Calif. or Integrated DNA Technologies Inc., Coralville, Iowa) is attached to the 3′ end of the probe. […]

For “227447 (antisense eG*e[5mC]*eT*eG*eG*dT*dG*dT*dA*dG*d[5mC]*d[5mC]*dT*d[5mC]*dA*e[5mC]*eT*eT*e[5mC]*e[5mC]) [compound 227447]”, which “% INHIB of mouse growth hormone receptor mRNA levels” value (“% INHIB” for short) is on record?
Its value is 77%.

With “227463 (antisense eA*eT*e[5mC]*eA*eG*d[5mC]*dA*dT*d[5mC]*dT*dT*dA*dA*dT*d[5mC]*e[5mC]*eT*eT*eT*eG) [compound 227463]” as the substance, how does the “% INHIB” value read?
The value was 39%.

Which “% INHIB” value does the source give for “227466 (antisense eT*eT*eG*eT*eA*dG*dT*dT*dA*dT*d[5mC]*dA*dT*dG*dA*eA*eT*eG*e[5mC]*e[5mC]) [compound 227466]” here?
The value was 50%.

How did the “% INHIB” value turn out when “227504 (antisense eT*eA*e[5mC]*e[5mC]*eT*dG*dA*dG*dA*d[5mC]*d[5mC]*d[5mC]*d[5mC]*dG*d[5mC]*eG*e[5mC]*eA*eG*e[5mC]) [compound 227504]” was run?
Its value is 34%.

How did the “% INHIB” value turn out when “227491 (antisense eT*eA*eG*eG*eA*dA*dA*dG*dG*d[5mC]*dT*dA*d[5mC]*dT*dG*e[5mC]*eA*eT*eG*eA) [compound 227491]” was run?
The value was 65%.

“227487 (antisense eT*e[5mC]*eA*eG*eG*d[5mC]*dA*dA*dA*dG*dG*d[5mC]*dA*dA*dA*eG*e[5mC]*eA*eG*eT) [compound 227487]” was tested. Which “% INHIB” value did it give?
The value was 44%.

With “227514 (antisense eA*eT*eG*e[5mC]*eT*d[5mC]*dA*d[5mC]*dG*dT*d[5mC]*dA*dG*d[5mC]*dT*eA*eT*eT*eG*eG) [compound 227514]” as the substance, how does the “% INHIB” value read?
The value was 43%.

With “227444 (antisense eA*eT*eG*eG*e[5mC]*dT*dG*d[5mC]*dG*d[5mC]*d[5mC]*dT*dG*d[5mC]*dT*eT*eG*eG*e[5mC]*eA) [compound 227444]” as the substance, how does the “% INHIB” value read?
The value was 53%.

With “227467 (antisense e[5mC]*eA*eT*e[5mC]*eA*dT*dT*dG*dT*dA*dG*dA*dA*dG*dT*e[5mC]*eG*eG*eG*eT) [compound 227467]” as the substance, how does the “% INHIB” value read?
The value was 33%.

“227517 (antisense e[5mC]*eT*eT*e[5mC]*eA*d[5mC]*dT*dA*dA*d[5mC]*d[5mC]*dT*dT*dG*d[5mC]*eA*eG*e[5mC]*eT*eT) [compound 227517]” was tested. Which “% INHIB” value did it give?
Its value is 63%.

With “227493 (antisense eT*e[5mC]*e[5mC]*e[5mC]*eA*dA*d[5mC]*dA*d[5mC]*dA*dG*dA*dT*dT*dT*eA*eA*eA*eA*e[5mC]) [compound 227493]” as the substance, how does the “% INHIB” value read?
Its value is 51%.

Which “% INHIB” value does the source give for “227508 (antisense eT*eT*e[5mC]*e[5mC]*eA*d[5mC]*dT*d[5mC]*dA*d[5mC]*d[5mC]*d[5mC]*d[5mC]*dA*dG*eT*eT*e[5mC]*eA*eT) [compound 227508]” here?
Its value is 51%.

Which “% INHIB” value does the source give for “227450 (antisense eT*eG*eG*e[5mC]*eT*dT*dT*d[5mC]*d[5mC]*d[5mC]*dT*dT*dT*dT*dA*eG*e[5mC]*eA*eT*eA) [compound 227450]” here?
The value was 71%.

“227460 (antisense eA*eA*e[5mC]*eT*eG*dG*dA*dT*dA*dT*d[5mC]*dT*dT*d[5mC]*dT*eT*e[5mC]*eA*e[5mC]*eA) [compound 227460]” was tested. Which “% INHIB” value did it give?
Its value is 43%.

With “227451 (antisense eA*eT*eG*eA*eG*d[5mC]*dA*dA*dT*dT*d[5mC]*dT*dT*dG*d[5mC]*eA*eG*e[5mC]*eT*eT) [compound 227451]” as the substance, how does the “% INHIB” value read?
Its value is 49%.

With “227462 (antisense eG*e[5mC]*eT*eT*eT*dG*dA*dA*dA*dA*dT*dA*dT*dA*dA*e[5mC]*eT*eA*e[5mC]*eA) [compound 227462]” as the substance, how does the “% INHIB” value read?
Its value is 31%.

“227495 (antisense eT*e[5mC]*e[5mC]*eT*eG*dA*dA*d[5mC]*dT*dG*d[5mC]*dA*dA*dA*dA*eG*e[5mC]*e[5mC]*eA*e[5mC]) [compound 227495]” was tested. Which “% INHIB” value did it give?
Its value is 47%.

“227515 (antisense eA*eA*eA*eT*eT*d[5mC]*dT*dT*dA*d[5mC]*dT*dT*dG*dT*d[5mC]*e[5mC]*e[5mC]*e[5mC]*eA*eG) [compound 227515]” was tested. Which “% INHIB” value did it give?
Its value is 37%.

“227494 (antisense e[5mC]*eA*eA*eA*eA*dG*d[5mC]*d[5mC]*dA*d[5mC]*d[5mC]*dT*dG*dA*dT*eT*eG*eT*eT*eT) [compound 227494]” was tested. Which “% INHIB” value did it give?
Its value is 56%.

Which “% INHIB” value does the source give for “227496 (antisense eG*e[5mC]*eA*eT*eT*d[5mC]*dA*dA*dT*dT*dT*d[5mC]*d[5mC]*dT*dG*eA*eA*e[5mC]*eT*eG) [compound 227496]” here?
Its value is 51%.

For “227512 (antisense eT*eA*eA*e[5mC]*e[5mC]*dT*dA*dT*dG*dG*dT*dG*dA*d[5mC]*dT*eA*eT*eG*eT*e[5mC]) [compound 227512]”, which “% INHIB” value is on record?
The value was 36%.

Which “% INHIB” value does the source give for “227465 (antisense eT*eG*eA*eG*eA*dA*dG*dA*dT*d[5mC]*dT*dG*dG*dA*dT*e[5mC]*eA*eA*eT*e[5mC]) [compound 227465]” here?
Its value is 51%.

With “227486 (antisense e[5mC]*eG*eG*eT*eG*dT*dG*dA*dA*d[5mC]*d[5mC]*dG*dT*dG*dG*eT*eG*eT*eA*eG) [compound 227486]” as the substance, how does the “% INHIB” value read?
Its value is 39%.

Which “% INHIB” value does the source give for “227503 (antisense eT*eA*e[5mC]*e[5mC]*eT*dG*dA*dG*dA*d[5mC]*d[5mC]*d[5mC]*d[5mC]*dA*dG*eT*eT*e[5mC]*eA*eT) [compound 227503]” here?
The value was 24%.

For “227470 (antisense e[5mC]*eT*e[5mC]*e[5mC]*eA*dA*dG*dG*dA*dT*dA*d[5mC]*d[5mC]*dA*dG*e[5mC]*eT*eG*eA*eT) [compound 227470]”, which “% INHIB” value is on record?
The value was 82%.

How did the “% INHIB” value turn out when “227519 (antisense eT*e[5mC]*eA*e[5mC]*eA*d[5mC]*d[5mC]*dT*dA*d[5mC]*d[5mC]*dT*dT*dT*dG*e[5mC]*eT*eG*e[5mC]*eT) [compound 227519]” was run?
The value was 44%.

With “227458 (antisense eG*eT*eA*e[5mC]*eT*dG*dA*dA*dT*dT*dT*d[5mC]*dA*dT*dA*e[5mC]*eT*e[5mC]*e[5mC]*eA) [compound 227458]” as the substance, how does the “% INHIB” value read?
The value was 75%.

For “227478 (antisense eT*eT*eT*eT*eT*dG*dG*d[5mC]*dA*dT*d[5mC]*dT*dG*dA*d[5mC]*eT*e[5mC]*eA*e[5mC]*eA) [compound 227478]”, which “% INHIB” value is on record?
The value was 68%.

For “227479 (antisense eA*eT*eG*eT*e[5mC]*d[5mC]*dT*d[5mC]*dT*dT*dG*dG*dT*dT*dA*eA*eA*eG*e[5mC]*eT) [compound 227479]”, which “% INHIB” value is on record?
Its value is 59%.

How did the “% INHIB” value turn out when “227446 (antisense eA*e[5mC]*eA*eA*eA*dG*dA*dT*d[5mC]*d[5mC]*dA*dT*dA*d[5mC]*d[5mC]*eT*eG*eA*eG*eA) [compound 227446]” was run?
The value was 87%.

With “227455 (antisense eA*eG*eT*eA*eG*dG*dG*dT*dA*dT*d[5mC]*d[5mC]*dA*dA*dA*eT*eG*eG*eA*eG) [compound 227455]” as the substance, how does the “% INHIB” value read?
The value was 43%.

Which “% INHIB” value does the source give for “227476 (antisense eG*eT*eA*eA*eT*dT*dT*dT*d[5mC]*dT*dT*dG*dG*d[5mC]*dA*eG*eG*eG*e[5mC]*eG) [compound 227476]” here?
The value was 41%.

How did the “% INHIB” value turn out when “227445 (antisense eT*eA*e[5mC]*e[5mC]*eT*dG*dA*dG*dA*d[5mC]*d[5mC]*dT*d[5mC]*dG*dG*eA*eG*eT*eT*eT) [compound 227445]” was run?
Its value is 69%.

“227506 (antisense e[5mC]*e[5mC]*eT*e[5mC]*e[5mC]*dA*dG*dT*dA*d[5mC]*d[5mC]*dT*d[5mC]*dG*dG*eA*eG*eT*eT*eT) [compound 227506]” was tested. Which “% INHIB” value did it give?
The value was 69%.

For “227473 (antisense eA*eA*eG*eT*e[5mC]*dA*dA*dT*dG*dT*dT*dT*dG*d[5mC]*d[5mC]*eA*eG*eT*eG*eA) [compound 227473]”, which “% INHIB” value is on record?
Its value is 71%.

Source: patent US9988635B2, “Modulation of growth hormone receptor expression and insulin-like growth factor expression” (Antisense Therapeutics Limited, priority 2003, dated 2018)
